What is called IC50 is the concentration at which inhibition is half-maximal. By CLint scaled is commonly meant the capacity of the preparation to metabolise the compound, expressed as a volume cleared per time. Read a high CLint scaled as rapid turnover. The term half-life denotes how long it takes for the measured level to halve.

For series [1], the system named is IMR-32 Neuroblastoma cells. The series can be described thus: Erastin-induced ferroptosis in IMR-32 neuroblastoma cells (Sytox Green cell death readout). It counts as cell-based. The note with it: Homo sapiens; IMR-32 cells, 10 μM erastin, compounds 1 nM to 1 μM, triplicate; read-out: IC50, antiferroptotic activity in response to erastin-induced ferroptosis. The procedure: In the present invention the potency of a compound inhibiting (or reducing) ferroptosis and/or oxytosis are determined in in vitro or in vivo assays. Typically in vitro assays are used to measure the potency of a candidate compound. Examples of suitable in vitro assays are cellular assays. One non-limiting example of an assay involves the use of the IMR-32 neuroblastoma cell line. The latter is stimulated to enter into ferroptosis upon stimulation with 10 μM erastin, a documented ferroptosis inducer (see for example Dixon et al (2012) Cell 149, 1060-1072 and ferroptosis inhibitors are evaluated for the prevention of erastin induced ferroptosis. Yet another assay is based the glutamate-induced cell death in the hippocampal cell line HT22 and ferroptosis/oxytosis inhibitors are evaluated for the prevention of cell death (see Henke N. et al (2013) Cell Death and Disease 4, e470). Still another assay is based on the sorafinib induced cell death (described to be iron dependent cell death) in hepatocellular carcinoma cells and ferroptosis inhibitors are evaluated for the prevention of cell death (see Louandre C. et al (2013) Int. J. Cancer 133, 1732). The calculated potency of a compound inhibiting ferroptosis and/or oxytosis is typically depicted as an IC50 value. Examples of suitable in vivo assays are typically pre-clinical disease models of for example mice for the diseases benefiting the application of ferroptosis and/or oxytosis inhibitors, as described herein. One non-limiting example of an in vivo assay is based on inducing liver damage in mice by administering the herbicide diquat dibromide monohydrate and ferroptosis inhibitors are evaluated based on reduced levels of liver transaminases in serum (see Ran Q et al (2004) J. Biol. Chem. 279, 53, 55137).
The IC50 values for the individual compounds of the invention were determined in the neuroblastoma, IMR-32 cell line. In brief, IMR-32 cells were subjected to 10 μM erastin, the latter compound is known to induce ferroptosis. A concentration gradient (ranging from 1 nM to 1 μM) of the compounds was applied to the cells. These experiments were performed in a 96-well format (in triplicate), and cell death was analyzed in a fluorescent plate reader by use of a fluorescent cell death dye (1.5 μM Sytox Green). The IC50 values depicted in Table 1 are the concentration values for the individual compounds which are able to overcome ferroptosis.

Series [2] in a line: Microsomal (metabolic) stability, human liver microsomes. The note with it: human, liver microsomes. An excerpt: (§1) By using the measured microsomal in vitro t1/2, a calculated value for the intrinsic clearance Clint can be determined. This value states the measure in which a drug that is not bound to plasma proteins is irreversibly removed from the body by the liver. This value is expressed in mL/min/kg which can be interpreted as the volume of blood in mL that is cleared of a drug per minute per kilogram of body weight. The CLint is less sensitive to used variables in ADME assays since the amount of microsomal protein and the volume of the incubation are all taken into account. (Sohlenius-Sternbeck et al., Xenobiotica, 2012, 42, 841-853)
(§2) Liver microsomes (20 mg protein/ml), NADPH regenerating system solutions A & B and 5 mM stock compound solution (100% DMSO) are prepared. The reaction mixture finally contains 713 μL purified water, 200 μL 0.5 M potassium phosphate pH 7.4, 50 μL NADPH regenerating system solution A (BD Biosciences Cat. No. 451220), 10 μL NADPH regenerating system solution B (BD Biosciences Cat. No. 451200) and 2 μL of the compound stock solution (10 μM final concentration). The reaction mixture is warmed to 37° C. for 5 minutes in a water bath and the reaction is initiated by addition of 25 μL of liver microsomes (0.5 mg protein/ml final concentration). At different time points (0 min-15 min-30 min-60 min-120 min-240 min-360 min-24 h), 20 μL is withdrawn and 80 μL cold acetonitrile is added on ice for 10 minutes. Then the mixtures are centrifuged at 13 000 rpm for 5 min at 4° C. The supernatant is further diluted in 90% water/MeCN (1/25) to fall within the range of the LC/MS/MS analysis. At each time point, the compound is analysed using LC/MS/MS with the same UPLC system as described above. A standard curve of six points was made to fit the measured concentrations. Verapamil was used as a positive control.
(§3) All obtained readouts were processed using Microsoft Excel. In order to determine the microsomal half-life t1/2 of the compounds, the rate constant k was determined by plotting the exponential decay graphs using GraFit. Microsomal t1/2 was determined using the following formula: […]

Series [3] is described as follows: Microsomal (metabolic) stability, mouse liver microsomes. The note with it: liver microsomes, pH 7.4.
Excerpt: as §1, §2, §3
A general note: Liver microsomes are vesicles of endoplasmic reticulum, rich in cytochrome P450 enzymes.

A short description of series [4]: Microsomal (metabolic) stability, rat liver microsomes. The note with it: rat, liver microsomes.
Excerpt: as §1, §2, §3

A short description of series [5]: Kinetic solubility (turbidimetric method). Particulars: 10 mM PBS pH 7.4, 2% DMSO, test range 3.125-200 μM, 2 h at 37° C. It counts as physicochemical. The procedure:
A turbidimetric method was used. First a series of DMSO compound stock solutions was prepared ([…]). An aliquot of 4 μL stock solution was added to 196 μL PBS buffer (pH 7.4). A series of concentrations were prepared (3.13-200 μM), including a blank on a microtiter plate. (2% DMSO-D6) The microtiter plate was shaken for 10 seconds and incubated for 2 hours at 37° C. When there was no turbidity measured at a given concentration the sample was assumed to be dissolved.

Series [6] can be described thus: Plasma stability, human plasma. In kind it is in vitro ADME. Particulars: 37° C., remaining parent compound, read-out: Plasma stability (% recovery after 6 h), Human. As to the method:
(§4) 5 μl of a 10 mM stock solution of the compound in DMSO was added to 995 μl of plasma to obtain a 50 μM final solution. The mixture was gently shaken for 6 h at 37° C. Aliquots of 100 μl were taken at various time points (0, 0.5 h, 1 h, 2 h, 3 h and 6 h) and diluted with 400 μl of cold methanol (stored at 4° C.). The suspension was centrifuged at 14000 rpm for 5 min. 50 μl of the supernatant was diluted with 950 μl of methanol and analysed with LC/MS/MS. The samples were analysed in triplicate. The experiment was done in duplicate. […] Enalapril maleate was used as a control in mice, rats, and in human.

A short description of series [7]: Plasma stability, mouse plasma. It counts as in vitro ADME. The note with it: 37° C., remaining parent compound, read-out: Plasma stability (% recovery after 6 h), Mouse. As to the method: as §4
The nature of series [8]: Plasma stability, rat plasma. Particulars: 37° C., remaining parent compound, read-out: Plasma stability (% recovery after 6 h), Rat. It counts as in vitro ADME. As to the method:
as §4

Regarding `O=S(=O)(NCCN1CCOCC1)c1ccc(NC2CCCCC2)c(NCc2ccccc2)c1` [Compound 35, 3-(benzylamino)-4-(cyclohexylamino)-N-(2-morpholinoethyl)benzenesulfonamide], the concentration for half-maximal inhibition (IC50) in series [1] was 24 nM. Besides, the intrinsic clearance (CLint scaled) at 10 µM in series [2] (pH 7.4) came to 22.6 ± 8.1 mL/min/kg; in series [3], 1220 ± 48 mL/min/kg; in series [4] (pH 7.4), 326 ± 13.2 mL/min/kg. The half-life at 10 µM was 58.8 ± 21 min in series [2] (pH 7.4, Microsomal stability (t1/2), human liver microsomes, 0.5 mg protein/ml, 10 μM compound, 37° C.); 3.06 ± 0.12 min in series [3]; 10.4 ± 0.42 min in series [4] (pH 7.4, Microsomal stability (t1/2), rat liver microsomes, 0.5 mg protein/ml, 10 μM compound, 37° C.). Moreover, the “Solubility (kinetic)” value in series [5] was 50 to 100 µM. The recovery at 6 h, 50 μM in series [6], in series [7] and in series [8] was 100% in each case.
